Experiments:
[1] = test system: T. gondii RH-YFP tachyzoites; test: Synergy studies with RH strain YFP tachyzoites; type: cell-based, Toxoplasma gondii
Protocol: Synergy studies with RH strain YFP Tachyzoites. Atovaquone and pyrimethamine were used to test whether they are synergistic with JAG21. Serial dilutions of the combination of JAG21 and either atovaquone or pyrimethamine were used in an in vitro challenge assay as described above. The EC50 of each compound and the combination of two compounds were determined. The effect of the combination of drugs was calculated with the following formula: C=[A]c/[A]a+[B]c/[B]a. If C is lower than 1, the two compounds tested have synergistic effect; if C is greater than 1, the two compounds tested have antagonist effect and if C is 1 they are additive.

T. gondii ΔRPS13 = test: ΔRPS13 infection of interferon receptor knockout mice; type: in vivo, Toxoplasma gondii; conditions: 100,000 ΔRPS13; TAF day -1, JAG21 14 days, then tetracycline; vs either alone; not durable
Source text: RPS13 Δ In vivo. This G1 arrested parasite persists in tissue culture for prolonged times in the absence of tetracycline (Hutson et al 2010), but in immune competent mice it cannot be rescued with teteracycline, or LNAME (L-N^G-Nitro arginine methyl ester, an analog of arginine) used as an antagonist of nitric oxide synthase (NOS) that inhibits NO production, or both together (Hutson et al. 2010).
In pilot studies, herein, interferon α receptor knockout mice that were not treated were observed following infection. At 7 and at 14 days following infection, spleen and liver were removed and immune peroxidase stained. At 14 days a group of mice were treated with anhydrotetracycline and when a subset of these mice died their spleen and liver were removed and immune peroxidase stained.
As in the pilot studies, this RPS13 Δ parasite also was used to infect interferon α receptor knockout mice in a treatment study. In this separate study, groups of mice were infected with RPS13 Δ. […] At the time they appeared to have substantial illness or at the termination of the experiment they were euthanized, tissues fixed in formalin and stained with hematoxylin and eosin or immunoperoxidase stained and parasite burden was assessed.

T. gondii Me49 strain = test: Established chronic Me49 infection in Balb/C mice, brain cysts; type: in vivo, Toxoplasma gondii; conditions: treatment from day 30 after Me49 infection, IP daily for 14 days; p<0.03, p<0.01
Protocol: In separate experiments, Balb/C mice were infected IP with 20×10^3 T. gondii Me49 strain tachyzoites. In these separate studies of mice with established chronic infection, after 30 days, IP treatment with JAG21 was begun each day for 14 days. JAG21 was dissolved in DMSO and administered IP in a total volume of 0.05 mL. In experiments when tafenoquine was administered alone or with JAG21 in some groups 3 mg/kg tafenoquine was administered once on day −1 from when JAG21 treatment was initiated. Cysts in brain were quantitated on day 30, 16 days after discontinuing JAG21. Immunoperoxidase staining was performed. Parasite burden was quantitated in two ways. The first was using a positive pixel count algorithm of Aperio ImageScope software. Positive pixels were normalized to tissue area (mm^2). Briefly, automated quantitation was done by counting positive pixels per square area. The entire brain in one section was scanned for each mouse. The Cyst burden was quantitated as units of positive pixels per mm2. The average±S.E.M. numbers of mm2 per slide quantitated was 30.2±1.6 square mm per mouse for this quantification. […] Cysts on each slide for each condition in two biological replicate experiments were also quantitated by 2 separate observers independently and results compared with automated counting, separately.

hERG = hERG (Homo sapiens, UniProt Q12809); test: hERG liability; type: in vitro ADME
Chain of hERG (Q12809 whole entry): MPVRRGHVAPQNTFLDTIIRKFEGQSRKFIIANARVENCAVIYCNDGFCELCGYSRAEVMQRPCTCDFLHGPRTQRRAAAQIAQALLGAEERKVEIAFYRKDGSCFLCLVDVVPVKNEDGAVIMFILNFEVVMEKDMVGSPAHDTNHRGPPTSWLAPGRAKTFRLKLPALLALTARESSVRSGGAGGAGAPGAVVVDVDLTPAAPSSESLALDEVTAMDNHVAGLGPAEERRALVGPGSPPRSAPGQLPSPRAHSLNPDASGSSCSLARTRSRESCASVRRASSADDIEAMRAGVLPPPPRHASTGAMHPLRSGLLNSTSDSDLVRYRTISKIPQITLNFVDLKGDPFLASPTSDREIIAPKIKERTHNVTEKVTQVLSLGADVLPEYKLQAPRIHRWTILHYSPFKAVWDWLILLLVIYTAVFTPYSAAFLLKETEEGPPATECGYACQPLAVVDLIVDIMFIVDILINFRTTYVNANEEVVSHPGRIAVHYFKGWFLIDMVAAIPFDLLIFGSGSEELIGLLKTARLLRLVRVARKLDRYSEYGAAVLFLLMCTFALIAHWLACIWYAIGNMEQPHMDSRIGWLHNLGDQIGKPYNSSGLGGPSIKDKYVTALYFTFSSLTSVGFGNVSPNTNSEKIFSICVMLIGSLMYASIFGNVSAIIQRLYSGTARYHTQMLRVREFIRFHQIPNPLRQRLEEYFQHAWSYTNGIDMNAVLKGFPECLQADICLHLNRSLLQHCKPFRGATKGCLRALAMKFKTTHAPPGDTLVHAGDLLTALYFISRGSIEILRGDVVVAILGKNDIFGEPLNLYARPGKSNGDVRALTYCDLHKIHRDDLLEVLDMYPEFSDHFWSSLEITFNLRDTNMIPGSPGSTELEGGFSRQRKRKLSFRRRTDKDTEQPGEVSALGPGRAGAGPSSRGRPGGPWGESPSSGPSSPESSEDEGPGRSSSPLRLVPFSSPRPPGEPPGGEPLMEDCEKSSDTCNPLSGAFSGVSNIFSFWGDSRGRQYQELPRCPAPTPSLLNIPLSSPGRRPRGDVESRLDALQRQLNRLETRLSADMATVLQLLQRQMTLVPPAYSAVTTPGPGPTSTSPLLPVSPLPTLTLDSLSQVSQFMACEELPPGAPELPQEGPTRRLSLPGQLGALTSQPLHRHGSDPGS
Protocol: Structure Activity Relationship (SAR) and comparison of effect on T.gondii and HFF enzyme activity. […] The MDCK-MDR1 Permeability Assay was also performed. […] These were measured by Chem Partners.

bovine cytochrome bc1 = target: T1, bovine cytochrome bc1 (Bos taurus, UniProt P00157); test: Bovine cytochrome bc1 activity assay; type: biochemical; conditions: read-out: Inhibition of bovine Cytbc1 activity
T1 construct: Whole fresh bovine heart was collected after slaughter; from tissue; host or cells: bovine heart mitochondria; DDM-solubilised, DEAE-Sepharose, Sephacryl S-300, PEG fractionation
Protocol: Bovine cytochrome bc1 activity assays. Bovine cytochrome bc, inhibition assay was carried out in 50 mM KPi pH 7.5, 2 mM EDTA, 10 mM KCN, 30 μM equine heart cytochrome c (Sigma Aldrich), and 2.5 nM bovine cytochrome bc, at room temperature. 20 mM inhibitors dissolved in DMSO were added to the assay at a desired concentration without prior incubation. […] The reaction was initiated by the addition of 50 μM decylubiquinol (Abcam). The reduced cytochrome c was monitored by the different absorption between 550 and 542 nm using extinction coefficient of 18.1 mM^−1 cm^−1 in a SPECTRAmax Plus 384 UV-visible Spectrometer. The initial kinetic rate is determined as a zero-order reaction and used as the specific activity of cytochrome bc1.

SMILES: Cc1[nH]c2c(c(=O)c1-c1ccc(Oc3ccc(OC(F)(F)F)cc3)cc1)CCCC2 [JAG021, 2-methyl-3-(4-(4-(trifluoromethoxy)phenoxy)phenyl)-5,6,7,8-tetrahydroquinolin-4-one]
- Combination with atovaquone against RH strain tachyzoites ([1]; isobologram): synergy
- Combination with pyrimethamine against RH strain tachyzoites ([1]; no synergy): no antagonism
- Survival time, JAG21 combined with tafenoquine (T. gondii ΔRPS13): improved time of survival
- Normal appearing cysts, free organisms and immunoperoxidase stained cysts in brain (T. gondii Me49 strain): marked, statistically significant reduction
- hERG liability (hERG): no hERG liability
- inhibition at 0.1 µM (bovine cytochrome bc1; 0.1 μM): 36%
- inhibition at 1 µM (bovine cytochrome bc1; 1 μM): 63%

— patent US20230181564A1, “Potent Tetrahydroquinolone Eliminates Apicomplexan Parasites” (The University of Chicago, priority 2020, published 2023)
